Experimental data taken from patent US20210323918A1, “COMPOSITIONS AND METHODS FOR SUPPRESSING AND/OR TREATING A GROWTH RELATED DISEASE AND/OR A CLINICAL CONDITION THEREOF” (CK Biotech Inc., priority 2018, published 2021).

Test system: growth plates of proximal tibiae of mice
Test: Growth plate senescence and longitudinal bone growth in mice
Format: in vivo
Procedure: Animals. Cxxc5^−/− mice were established in a previous study. See e.g., Kim H. Y. et al. (2015), CXXC5 is a negative feedback regulator of the Wnt/beta-catenin pathway involved in osteoblast differentiation. CELL DEATH DIFFER 22: 912-920. To manipulate growth plate senescence by estrogen, 3-week-old […] Cxxc5^−/− male mice received weekly intramuscular (i.m.) injections of either 70 μg/kg estradiol (E2) cypionate (Sigma-Aldrich) or vehicle (cottonseed oil) for 3 weeks. To investigate the effects of KY19382 treatment on longitudinal bone growth, C57BL/6 male mice were purchased from KOATECH (Gyeonggido, Korea). KY19382 (0.1 ing/kg) was administered daily by intraperitoneal (i.p.) injection to 3- and 7-week-old mice for 2 weeks or to 3-week-old mice for 10 weeks. For BrdU labeling experiments, mice were i.p. injected with 50 mg/kg BrdU (Sigma-Aldrich) before 24 hours to sacrifice. All animal procedures were approved by the Institutional Animal Care and Use Committee (IACUC) of Yonsei University (Korea) and conducted based on the guidelines of the Korean Food and Drug Administration.
Radiographic and histochemical analyses. Plain radiographs were taken using an X-ray apparatus (KODAK DXS 4000 Pro SYSTEM; Carestream Health Rochester, N.Y.). The tissues were fixed in 4% paraformaldehyde (PFA), decalcified in 10% EDTA (pH 7.4), dehydrated, embedded in paraffin, and sectioned to 4 μm thickness (Leica Microsystems, Wetzlar, Germany). The tissues sections were rehydrated and used for further analyses including H&E, TRAP, and itnmunohistochemical (IHC) staining. To perform IHC staining, the sections were incubated with citrate buffer (pH 6.0) at 80° C. for 30 minutes, with 0.05% trypsin working solution (pH 7.8) for 30 minutes at 37° C., or with 0.5% pepsin (Sigma-Aldrich) for 15 minutes at 37° C. Then, the sections were blocked with 5% normal goat serum (NGS; Vector Laboratories, Burlingame, Calif.) and 0.3% triton-x-100 in PBS for 1 hour at room temperature. For 3,3′-diaminobensidine (DAB) staining, the sections were incubated with 0.345% H2O2 for 15 minutes. Before incubating the sections with mouse primary antibody, mouse IgG was blocked using a M.O.M kit (Vector Laboratories). The sections were incubated at 4° C. overnight with the following primary antibodies: anti-β-catenin (BD Bioscience, San Jose, Calif., #610154; 1:50), anti-CXXC5 l (1:200; lab-made) anti-BrdU (DAKO, Carpinteria, Calif., M0744; 1:200), anti-COL2A1 (ThermoFisher Scientific, MA, PAS-11462; 1:100), anti-Ki67 (Abcam, Cambridge, UK, ab15580; 1:200), and anti-RUNX2 (Abeam, ab23981; 1:200). Then, the sections were incubated at room temperature for 1 hour with biotinylated anti-mouse (Vector Laboratories, BA-9200; 1:200) or biotinylated anti-rabbit (Vector Laboratories, BA-1000; 1:200) secondary antibodies. The sections were then incubated in avidin-biotin complex solutions (Vector Laboratories), stained with a DAB kit (Vector Laboratories) for 3-30 minutes, and counterstained with methyl green (Sigma-Aldrich). All incubations were conducted in humid chambers. […] For fluorescence staining, the sections were incubated with primary antibody at 4° C. overnight, followed by incubation with anti-mouse Alexa Fluor 488 (ThermoFisher Scientific, A11008; 1:200) or anti-rabbit Alex Fluor 555 (ThermoFisher Scientific, A21428; 1:200) secondary antibodies at room temperature for 1 hour. The sections were then counterstained with DAPI (Sigma-Aldrich) for 5 minutes and mounted in Gel/Mount media (Biomeda Corporation). All incubations were conducted in dark humid chambers. The fluorescent signals were visualized using a LSM700 META confocal microscope (Carl Zeiss Inc., Thornwood, N.Y.) at excitation wavelengths of 488 nm (Alexa Fluor 488), 543 nm (Alexa Fluor 555), and 405 nm (DAPI).
Immunoblot analyses. […] Protein samples were separated on a 8-12% sodium dodecylsulfate polyacrylamide gel electrophoresis (SDS-PAGE) and transferred to a nitrocellulose membrane (Whatman). […]

[1] = 3-week-old mice, 0.1 mg/kg daily for 2 weeks
[2] = 7-week-old mice, 0.1 mg/kg i.p. daily for 2 weeks

17β-estradiol [Compound E2]
structural senescence of the tibial growth plate (Cxxc5−/− mice, E2 cypionate 70 μg/kg i.m. once a week for 3 weeks): hardly observed

CO/N=C1/C(=C2/C(=O)Nc3cc(Cl)c(Cl)cc32)Nc2ccccc21 [KY19382, 5,6-dichloroindirubin-3′-methoxime]
length of tibiae (0.1 mg/kg daily for 10 weeks, mice from 3 to 13 weeks of age, vs vehicle): significantly increased | height of each growth plate zone and BrdU-positive cells [1]: elevated | β-catenin-expressing chondrocytes [1]: increased | number of TRAP-positive foci in the growth plate/trabecular interface (3-week-old mice, 0.1 mg/kg daily for 2 weeks, vs vehicle): not different | nuclear β-catenin in growth plate chondrocytes [2]: dramatically increased | numbers of proliferative and hypertrophic chondrocytes per column (BrdU- and RUNX2-positive cells) [2]: increased numbers | total growth plate height, monitored by COL2A1 immunostaining [2]: significantly increased | β-catenin and chondrogenic markers (COL2A1, RUNX2, MMP13) in the growth plate, immunoblot [2]: increased | TRAP-positive foci (mice treated from 7 to 9 weeks of age, 0.1 mg/kg, vs vehicle): elevated
